Laboratory results: patent publication US10273267B2, “Beta-hairpin peptidomimetics as selective elastase inhibitors” (POLYPHOR AG, priority 2013, dated 2019)
Blank lines part the entries; values can stand above or below the molecule they belong to. *1 amine or outer side, *2 acyl side, *3 side chain or, on linkers, in order; H or OH if unused. Where a SMILES comes first, the peptide text is derived from it. [ ]: non-standard residue; d: D form. X3 = O=C(CC[C@H](Cc1ccc(O)cc1)N[*:1])[*:2]; X2 = C[C@@H](O)[C@@H](CCC(=O)[*:2])N[*:1]; Oic = O=C(O)[C@@H]1C[C@@H]2CCCC[C@@H]2N1; Gly(octyl) = CCCCCCCC[C@H](N)C(=O)O; hTyr = N[C@@H](CCc1ccc(O)cc1)C(=O)O; β3hQ = NC(=O)CC[C@H](N)CC(=O)O; AllylGly = C=CC[C@H](N)C(=O)O

Legend:
Assay type in all cases: biochemical
[1] = target: T1, human neutrophil elastase (Homo sapiens, UniProt P08246); assay: Inhibition of human neutrophil elastase (hydrolysis of MeOSuc-AAPV-pNA); details: substrate MeOSuc-AAPV-pNA 0.3 mM, enzyme 10 nM, 37° C., pH 8; read-out: Human neutrophil elastase (hNE) IC50
T1 construct: purchased Serva Electrophoresis, Germany
T1 sequence (P08246 30-267): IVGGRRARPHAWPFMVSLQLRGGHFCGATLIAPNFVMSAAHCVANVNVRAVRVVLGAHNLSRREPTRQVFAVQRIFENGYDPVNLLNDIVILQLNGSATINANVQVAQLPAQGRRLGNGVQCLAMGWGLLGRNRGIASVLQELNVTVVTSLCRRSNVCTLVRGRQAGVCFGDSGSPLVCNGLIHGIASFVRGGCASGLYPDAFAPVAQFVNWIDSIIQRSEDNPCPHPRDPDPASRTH
Experimental: 2.2 Inhibition of Human Neutrophil Elastase
The ability of the peptides of the invention to inhibit the hydrolysis activity of human neutrophil elastase (Serva Electrophoresis, Germany) using the synthetic tetrapeptidic substrate MeOSuc-AAPV-pNA (Bachem, Switzerland) was determined as follows:
(§1) The above substrate (0.3 mM) and human neutrophil elastase (10 nM) were incubated at 37° C. with serial dilutions of the peptides (1% DMSO final) in assay buffer (50 mM Tris, pH 8, 300 mM NaCl, 0.01% Tween20). The release of pNA was followed by monitoring the change in absorbance at 405 nm for 30 minutes. Control assays with the same assay set-up as above, but without peptide, ran linearly. The dose-response data were fitted to the 4-parameter Hill equation providing the IC50 value using Graphpad (Prism 5).

[2] = target: T2, porcine pancreatic elastase (Sus scrofa, UniProt P00772); assay: Inhibition of porcine pancreatic elastase (hydrolysis of MeOSuc-AAA-pNA); details: for hNE/PPE selectivity: ratio of PPE IC50 to hNE IC50; for IC50: substrate MeOSuc-AAA-pNA 1 mM, enzyme 15 nM, 37° C., pH8, read-out: Porcine pancreatic elastase (PPE) IC50
T2 construct: purchased Sigma, USA
T2 sequence (P00772 27-266): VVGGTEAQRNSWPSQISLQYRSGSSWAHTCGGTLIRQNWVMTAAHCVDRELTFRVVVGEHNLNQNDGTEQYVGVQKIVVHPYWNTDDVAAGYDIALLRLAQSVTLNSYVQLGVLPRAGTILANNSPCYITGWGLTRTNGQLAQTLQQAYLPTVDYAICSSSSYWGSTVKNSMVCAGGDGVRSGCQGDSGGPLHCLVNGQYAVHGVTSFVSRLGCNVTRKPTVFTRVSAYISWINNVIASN
Experimental: 2.3 Inhibition of Porcine Pancreatic Elastase
The ability of the peptides of the invention to inhibit the hydrolysis activity of porcine pancreatic elastase (Sigma, USA) using the synthetic tripeptidic substrate MeOSuc-AAA-pNA (Bachem, Switzerland) was determined as follows:
as §1, with “(1” for “(0.3”, “porcine pancreatic” for “neutrophil”, “(15” for “(10”, “(0.5%” for “(1%”, “pH8, 100” for “pH 8, 300”

human proteinase 3 = target: T3, human proteinase 3 (Homo sapiens, UniProt P24158); assay: Inhibition of human proteinase 3 (substrate Boc-Ala-Ala-Nva-SBzl); details: for hNE/hPr3 selectivity: ratio of hPr3 IC50 to hNE IC50; for IC50: substrate Boc-Ala-Ala-Nva-SBzl 1 mM, enzyme 10 nM, 37° C., pH7.4, read-out: Human proteinase 3 (hPr3) IC50
T3 construct: purchased Elastin Products Company, USA
T3 sequence (P24158 28-248): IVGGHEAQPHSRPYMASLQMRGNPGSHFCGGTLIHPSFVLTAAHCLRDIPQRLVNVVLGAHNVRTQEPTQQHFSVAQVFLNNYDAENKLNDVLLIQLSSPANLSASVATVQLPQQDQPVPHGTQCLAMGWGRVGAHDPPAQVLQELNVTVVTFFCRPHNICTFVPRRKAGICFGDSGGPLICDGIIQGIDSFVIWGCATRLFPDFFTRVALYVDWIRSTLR
Experimental: 2.4 Inhibition of Human Proteinase 3
The inactivation of human proteinase 3 (Elastin Products Company, USA) by the peptides of the invention using synthetic tripeptidic substrate Boc-Ala-Ala-Nva-SBzl (Elastin Products Company, USA) was determined as follows:
as §1, with “(1 mM), 4,4′-dithiodipyridine (250 μM)” for “(0.3 mM)”, “proteinase 3” for “neutrophil elastase”, “(0.5%” for “(1%”, “pH7.4, 150” for “pH 8, 300”, “reaction process” for “release of pNA”, “340” for “405”

Compound: CCCCCCCC[C@@H]1NC(=O)[C@H](Cc2ccc(O)cc2)NC(=O)[C@@H](C(C)C)NC(=O)[C@H]([C@@H](C)O)NC(=O)[C@H](CCCCN)NC(=O)[C@H](CCC(N)=O)NC(=O)[C@@H]2CCCN2C(=O)[C@@H]2CCCN2C(=O)[C@H]([C@@H](C)CC)NC(=O)[C@H](CO)NC(=O)[C@H](C)NC(=O)[C@H]([C@@H](C)O)NC(=O)[C@H](CCC(=O)O)NC1=O [Example 21, Cyclo(-OctGly-Glu-Thr-Ala-Ser-Ile-Pro-Pro-GI n-Lys-Thr-^DVal-Tyr-)] (cyclo([Gly(octyl)]ETASIPPQKT[dV]Y))
- IC50 [1]: 0.0129 µM
- hNE/PPE selectivity [2]: 822
- IC50 [2]: 10.6 µM
- hNE/hPr3 selectivity (human proteinase 3): 1008
- IC50 (human proteinase 3): 13 µM

Compound: CCCCCCCC[C@@H]1NC(=O)[C@@H]2CCCN2C(=O)[C@H]2CCCN2C(=O)CC[C@H](Cc2ccc(O)cc2)NC(=O)[C@H](CCCCN)NC(=O)[C@H](CCC(N)=O)NC(=O)[C@@H]2CCCN2C(=O)[C@@H]2CCCN2C(=O)[C@H]([C@@H](C)CC)NC(=O)[C@H](CO)NC(=O)[C@H](C)NC(=O)[C@H]([C@@H](C)O)NC(=O)[C@H](CCC(=O)O)NC1=O [Example 8, Cyclo(-OctGly-Glu-Thr-Ala-Ser-Ile-Pro-Pro-Gln-Lys-[H-γ^4-DiHTyr-OH]-^DPro-Pro-)] (cyclo([Gly(octyl)]ETASIPPQK[X3][dP]P))
- IC50 [1]: 0.0198 µM
- hNE/PPE selectivity [2]: 91
- IC50 [2]: 1.81 µM
- hNE/hPr3 selectivity (human proteinase 3): 168
- IC50 (human proteinase 3): 3.33 µM

Compound: CCCCCCCC[C@@H]1NC(=O)[C@H](CCCCN)NC(=O)[C@@H](C(C)C)NC(=O)[C@H]([C@@H](C)O)NC(=O)[C@H](CCCCN)NC(=O)[C@H](CCC(N)=O)NC(=O)[C@@H]2CCCN2C(=O)[C@@H]2CCCN2C(=O)[C@H]([C@@H](C)CC)NC(=O)[C@H](CO)NC(=O)[C@H](C)NC(=O)[C@H]([C@@H](C)O)NC(=O)[C@H](CCC(=O)O)NC1=O [Example 22, Cyclo(-OctGly-Glu-Thr-Ala-Ser-Ile-Pro-Pro-Gln-Lys-Thr-^DVal-Lys-)] (cyclo([Gly(octyl)]ETASIPPQKT[dV]K))
- IC50 [1]: 0.0124 µM
- hNE/PPE selectivity [2]: 4847
- IC50 [2]: 60.1 µM
- hNE/hPr3 selectivity (human proteinase 3): 5677
- IC50 (human proteinase 3): 70.4 µM

Compound: CCCCCCCC[C@@H]1NC(=O)[C@H](Cc2ccc(O)cc2)NC(=O)[C@@H](Cc2ccc(O)cc2)NC(=O)[C@H]([C@@H](C)O)NC(=O)[C@H](CCCCN)NC(=O)[C@H](CCC(N)=O)NC(=O)[C@@H]2CCCN2C(=O)[C@@H]2CCCN2C(=O)[C@H]([C@@H](C)CC)NC(=O)[C@H](CO)NC(=O)[C@H](C)NC(=O)[C@H]([C@@H](C)O)NC(=O)[C@H](CCC(=O)O)NC1=O [Example 24, Cyclo(-OctGly-Glu-Thr-Ala-Ser-Ile-Pro-Pro-Gln-Lys-Thr-^DTyr-Tyr-)] (cyclo([Gly(octyl)]ETASIPPQKT[dY]Y))
- IC50 [1]: 0.0116 µM
- hNE/PPE selectivity [2]: 1112
- IC50 [2]: 12.9 µM
- hNE/hPr3 selectivity (human proteinase 3): 664
- IC50 (human proteinase 3): 7.7 µM

Compound: C=CC[C@@H]1NC(=O)[C@H]([C@@H](C)O)NC(=O)[C@H](CCC(=O)O)NC(=O)[C@H](CCC(=O)N[C@@H](Cc2ccccc2)C(=O)O)NC(=O)[C@@H]2CCCN2C(=O)[C@H]2CCCN2C(=O)[C@H](Cc2ccc(O)cc2)NC(=O)[C@H](CCCCN)NC(=O)[C@H](CCC(N)=O)NC(=O)[C@@H]2CCCN2C(=O)[C@@H]2CCCN2C(=O)[C@H]([C@@H](C)CC)NC(=O)[C@H](CO)NC1=O [Example 17, Cyclo(-Glu(Phe)-Glu-Thr-AllylGly-Ser-Ile-Pro-Pro-Gln-Lys-Tyr-^DPro-Pro-)] (cyclo(E(Phe)ET[AllylGly]SIPPQKY[dP]P))
- IC50 [1]: 0.015 µM
- hNE/PPE selectivity [2]: 2080
- IC50 [2]: 31.2 µM
- hNE/hPr3 selectivity (human proteinase 3): 4013
- IC50 (human proteinase 3): 60.2 µM

Compound: CCCCCCCC[C@@H]1NC(=O)[C@@H]2CCCN2C(=O)[C@H]2CCCN2C(=O)[C@H]([C@@H](C)O)NC(=O)[C@H](CCCCN)NC(=O)C[C@H](CCC(N)=O)NC(=O)[C@@H]2CCCN2C(=O)[C@@H]2CCCN2C(=O)[C@H]([C@@H](C)CC)NC(=O)[C@H](CO)NC(=O)[C@H](C)NC(=O)[C@H]([C@@H](C)O)NC(=O)[C@H](CCC(=O)O)NC1=O [Example 36, Cyclo(-OctGly-Glu-Thr-Ala-Ser-Ile-Pro-Pro-[H-β^3-HGln-OH]-Lys-Thr-^DPro-Pro-)] (cyclo([Gly(octyl)]ETASIPP[β3hQ]KT[dP]P))
- IC50 [1]: 0.0162 µM
- hNE/PPE selectivity [2]: 685
- IC50 [2]: 11.1 µM
- hNE/hPr3 selectivity (human proteinase 3): 364
- IC50 (human proteinase 3): 5.9 µM

Results, then the molecule that gave them:

- IC50 [1]: 0.015 µM
- hNE/PPE selectivity [2]: >6667
- IC50 [2]: > 100 µM
- hNE/hPr3 selectivity (human proteinase 3): >6667
- IC50 (human proteinase 3): > 100 µM
Compound: CC[C@H](C)[C@@H]1NC(=O)[C@H](CO)NC(=O)[C@H](C)NC(=O)[C@H]([C@@H](C)O)NC(=O)[C@H](CCC(=O)O)NC(=O)[C@H](CCCNC(=N)N)NC(=O)[C@@H]2CCCN2C(=O)[C@H]2CCCN2C(=O)[C@H]([C@@H](C)O)NC(=O)[C@H](CCCCN)NC(=O)[C@H](CCC(N)=O)NC(=O)[C@@H]2C[C@@H]3CCCC[C@@H]3N2C(=O)[C@@H]2CCCN2C1=O [Example 16, Cyclo(-Arg-Glu-Thr-Ala-Ser-Ile-Pro-Oic-Gln-Lys-Thr-^DPro-Pro-)] (cyclo(RETASIP[Oic]QKT[dP]P))

- IC50 [1]: 0.0153 µM
- hNE/PPE selectivity [2]: 2490
- IC50 [2]: 38.1 µM
- hNE/hPr3 selectivity (human proteinase 3): 627
- IC50 (human proteinase 3): 9.6 µM
Compound: CC[C@H](C)[C@@H]1NC(=O)[C@H](CO)NC(=O)[C@H](C)NC(=O)[C@H]([C@@H](C)O)NC(=O)[C@H](CCc2ccc(O)cc2)NC(=O)[C@H](CCCNC(=N)N)NC(=O)[C@H](CCC(=O)O)NC(=O)[C@H]2CCCN2C(=O)[C@H]([C@@H](C)O)NC(=O)[C@H](CCCCN)NC(=O)[C@H](CCC(N)=O)NC(=O)[C@@H]2CCCN2C(=O)[C@@H]2CCCN2C1=O [Example 49] (cyclo(R[hTyr]TASIPPQKT[dP]E))

- IC50 [1]: 0.0115 µM
- hNE/PPE selectivity [2]: 4217
- IC50 [2]: 48.5 µM
- hNE/hPr3 selectivity (human proteinase 3): 1835
- IC50 (human proteinase 3): 21.1 µM
Compound: CCCCCCCC[C@@H]1NC(=O)[C@@H]2CCCN2C(=O)[C@H]2CCCN2C(=O)CC[C@H]([C@@H](C)O)NC(=O)[C@H](CCCCN)NC(=O)[C@H](CCC(N)=O)NC(=O)[C@@H]2CCCN2C(=O)[C@@H]2CCCN2C(=O)[C@H]([C@@H](C)CC)NC(=O)[C@H](CO)NC(=O)[C@H](C)NC(=O)[C@H]([C@@H](C)O)NC(=O)[C@H](CCC(=O)O)NC1=O [Example 11, Cyclo(-OctGly-Glu-Thr-Ala-Ser-Ile-Pro-Pro-Gln-Lys-[H-γ^4-DiHThr-OH]-^DPro-Pro-)] (cyclo([Gly(octyl)]ETASIPPQK[X2][dP]P))

- IC50 [1]: 0.0079 µM
- hNE/PPE selectivity [2]: >12658
- IC50 [2]: > 100 µM
- hNE/hPr3 selectivity (human proteinase 3): >12658
- IC50 (human proteinase 3): > 100 µM
Compound: CC[C@H](C)[C@@H]1NC(=O)[C@H](CO)NC(=O)[C@H](C)NC(=O)[C@H]([C@@H](C)O)NC(=O)[C@H](C(C)C)NC(=O)[C@H](CCCNC(=N)N)NC(=O)[C@@H]2CCCN2C(=O)[C@H]2CCCN2C(=O)[C@H]([C@@H](C)O)NC(=O)[C@H](CCCCN)NC(=O)[C@H](CCC(N)=O)NC(=O)[C@@H]2C[C@@H]3CCCC[C@@H]3N2C(=O)[C@@H]2CCCN2C1=O [Example 41] (cyclo(RVTASIP[Oic]QKT[dP]P))
